From article PMC8467576, “Novel Ubiquitin Specific Protease-13 Inhibitors Alleviate Neurodegenerative Pathology” (Metabolites, 2021)

System: Nissl+ cells
Assay: Nissl staining neuron counts in TgA53T mice
Assay type: in vivo, mouse
Conditions: 40 mg/Kg I.P. daily for 7 days, vs DMSO
Procedure: BK50118-C is one of novel small molecule inhibitors of USP13 synthesized in our laboratory. For BK50118-C treatment, approximately 15 months old (±1 month) male and female TgA53T mice were treated with intraperitoneal injection of vehicle (DMSO) or BK50118-C at the daily dosage of 10 mg/Kg or 40 mg/Kg for 7 days. Animals were age and sex-matched in their respective treatment cohorts. All animals were sacrificed after treatment. All experiments were conducted in full compliance with the recommendations of Georgetown University Animal Care and Use Committee. These experiments were conducted under animal protocol No. 2016-1194 titled, Misfolded Protein Clearance in Neurodegeneration, which was approved by the Georgetown University IACUC. Protocol Information: IACUC Protocol Number: 2016-1194. Protocol Approval Date: 14 September 2020 Expiration Date: 14 September 2023.
Nissl staining was performed using FD Cresyl Violet Solution™ Regular Strength (FD NeuroTechnologies, Cat PS102-01, Columbia, MD, USA) as per manufacturer’s instructions. Silver staining was performed using FD NeuroSilver™ (FD NeuroTechnologies, Cat PK301,) as per manufacturer’s instructions.
Suppl Figure S3. BK50118-C improved cell survivals in TgA53T mice. Male and female TgA53T mice were treated with intraperitoneal injection of vehicle or BK50118-C at the daily dosage of 40 mg/Kg for 7 days. […]
substantia nigra (SN) H) compared to corresponding vehicles A), D) and G), verified […]
(1 picture or pasted object on this page, not shown here) […]
by quantification of Nissl+ cells in cortex C), striatum F) and SN I). Asterisk indicates statistic significant difference vs vehicle. * p<0.05 vs vehicle. Two-tailed student’s t test was used for analysis. N=3-4 mice per group. All values presented as Mean±SD.

Measured: neuron counts (Nissl+ cells)

Fc1ccc2nccc(OCc3ccccc3)c2c1 [BK50118-C, 4-benzyloxy-6-fluoroquinoline]
significantly increased: cortex | striatum | substantia nigra (SN)
